Results published in paper PMC6155649 (Molecules : A Journal of Synthetic Chemistry and Natural …, 2017).

Key:
[1] = observation of precipitation in DMSO; assay type: physicochemical; conditions: table footnote *
[2] = absorption spectrophotometric titrations versus pH (pKa)
Description: The HClO4 and NaOH solutions were freshly prepared just before use and titrated with sodium tetraborate decahydrate (B4Na2O7·10H2O, puriss, p.a, Fluka) and potassium hydrogen phthalate (C8H5KO3, Fluka, puriss, p.a.), respectively, using methyl orange (RAL) and phenolphthalein (Prolabo, purum) as the indicators. The GLEE program was applied for the glass electrode calibration (standard electrode potential E0/mV and slope of the electrode/mV pH^−1) and to check carbonate levels of the NaOH solutions used (<5%). The cell was thermostated at 25.0 ± 0.2 °C by the flow of a Lauda E200 thermostat. A stream of argon, pre-saturated with water vapour, was passed over the surface of the solution.
The spectrophotometric data were analyzed with the Specfit program which adjusts the absorptivities and the stability constants of the species formed at equilibrium. Specfit uses factor analysis to reduce the absorbance matrix and to extract the eigenvalues prior to the multiwavelength fit of the reduced data set according to the Marquardt algorithm.

[3] = test system: P. falciparum Dd2; experiment: SYBRgreen growth inhibition assay; assay type: cell-based; conditions: Plasmodium falciparum; P. falciparum Dd2, SYBRgreen method, 72 h; read-out: IC50 (nM) ± SD (n)
Description: The protocols are described in the experimental section. Two protocols to measure the growth inhibition were used: the tritiated hypoxanthine incorporation method and the SYBRgreen method. This was due to the fact that the radioactive assay was abandoned in the laboratory due to cost issues related to radioactive waste disposal. […] All data are mean values from one to four independent experiments, each consisting of eight drug concentrations in duplicate.
Parasite replication was assessed by fluorescent SYBRgreen staining of parasitic DNA [60] as previously described. IC50 values were calculated using SigmaPlot.

[4] = test system: human lung MRC-5 fibroblasts; experiment: cytotoxicity, Alamar Blue (resazurin) assay; conditions: human MRC-5 fibroblasts, 3 days incubation
Description: All compounds were tested for cytotoxicity on human lung MRC-5 fibroblasts using the Alamar Blue assay (Table 1 and Table 2).
MRC-5SV2 cells are cultured in Earls MEM +5% FCSi. […] After 3 days incubation, cell viability is assessed fluorimetrically after addition of resazurin and fluorescence is measured (λex 550 nm, λem 590 nm). The results are expressed as % reduction in cell growth/viability compared to untreated control wells and CC50 is determined.

## CC1=C(Cc2cccc(N)c2)C(=O)c2ccccc2C1=O [Compound 17, 2-(3-Aminobenzyl)-3-methylnaphthalene-1,4-dione]
[1]
  behaviour in DMSO: Precipitates in DMSO
[2]; ratio of protonated species at pH 5 and 7.4, Water, I = 0.1 M NaClO4, T = 25 °C
  [LH+]pH5/[LH+]pH7.4: 209.6
[2]; water with 0.1 M NaClO4
  pKa: 4.3 ± 0.02
[3]
  IC50: 1200 ± 1650 nM
[4]
  Tox/MRC-5: >64.0 µM
